Experimental data reported in BindingDB's records for patent US20240190824 (Ono Pharmaceutical Co., 2024).

Legend:
[1] = biological target: T1, Potassium channel subfamily K member 2 (Homo sapiens, UniProt O95069); assay: Thallium flux assay
T1 sequence (O95069 whole entry): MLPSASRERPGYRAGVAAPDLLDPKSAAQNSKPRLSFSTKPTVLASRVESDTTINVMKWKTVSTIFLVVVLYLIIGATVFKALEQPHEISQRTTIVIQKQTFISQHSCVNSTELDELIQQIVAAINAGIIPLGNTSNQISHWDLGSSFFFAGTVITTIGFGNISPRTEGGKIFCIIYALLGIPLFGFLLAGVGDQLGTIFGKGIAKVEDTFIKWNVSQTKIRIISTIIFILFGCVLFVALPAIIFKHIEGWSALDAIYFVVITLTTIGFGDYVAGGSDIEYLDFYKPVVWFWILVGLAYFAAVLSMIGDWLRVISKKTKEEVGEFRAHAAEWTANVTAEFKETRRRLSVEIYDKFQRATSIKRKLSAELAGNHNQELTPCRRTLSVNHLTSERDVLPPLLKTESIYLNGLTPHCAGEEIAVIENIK

[2] = biological target: T1, Potassium channel subfamily K member 2; assay: TREK-1 Manual Patch Clamp (hMPC) assay
Procedure: TBDCHO-K1 cells stably expressing human TREK-1 or HEK293 cells stably expressing human TREK-2 are plated on glass coverslips, and voltage clamped in the whole-cell configuration of the patch clamp technique. Cells were voltage clamped at a holding potential of −80 mV and the stepped to 0 mV for 500 msec. The voltage was subsequently ramped from −120 mV to +80 mV over a 500 msec duration. This step-ramp protocol was repeated every 10 sec.

Structure (SMILES)	IC50 [1]	IC50 [2]
CC(C)(C)OC(=O)Nc1ccc(Cl)c(C(=O)Nc2c(F)cc(C#Cc3ccccc3)cc2F)c1 [US20240190824, Compound 30]	220 nM	
Cc1cc(C#Cc2cccc(F)c2)nc(C)c1NC(=O)c1cc(NC(=O)OC(C)(C)C)ccc1Cl [US20240190824, Compound 11]	410 nM	32 nM
Cc1cc(C#Cc2ccccc2)cnc1NC(=O)c1cc(OCC2CCOC2)ccc1Cl (stereo unspecified) [US20240190824, Compound 85]	490 nM	
Cc1cc(C#Cc2ccccc2)cc(F)c1NC(=O)c1cc(NC(=O)OC(C)(C)C)ccc1Cl [US20240190824, Compound 29]	210 nM	
Cc1cc(COc2ccc(Cl)c(C(=O)Nc3ncc(C#Cc4ccccc4)cc3C)c2)on1 [US20240190824, Compound 83]	390 nM	
